From patent publication US20120295346A1, “METHODS AND COMPOSITIONS FOR MODULATING MEMBRANE POTENTIAL TO INFLUENCE CELL BEHAVIOR” (Tufts University, priority 2009, published 2012)
Entries after “also recorded” stand apart in the source; their conditions may differ.

Experiments:
Xenopus embryos [1] = experiment: Ivermectin-induced hyper-pigmentation with blockers of voltage sensitive pathways; assay type: in vivo; details: for effect on ivermectin-induced hyper-pigmentation: with 10 μM ivermectin, 0.1 mM cadmium chloride, 0.1 mM verapamil, 50 mM lindane, 20 mM fluoxetine
Description: We next sought to examine how changes in membrane voltage are translated into downstream signaling. In order to determine the signaling molecules responding to ivermectin induced depolarization, we examined three known voltage sensitive pathways: calcium, serotonin, and gap junctions. We capitalized on the existence of drugs known to block each of these pathways to determine if any were downstream of ivermectin signaling.
Embryos were exposed to 10 μM ivermectin from stage 10 throughout development. […] The following methods were used in conducting the experiments detailed above.
(§1) Stocks of ivermectin (sigma) were kept at 10 mM concentration in DMSO. Embryo exposure occurred at a 1:1000 dilution (10 μM) in MMR for the stages indicated in each experiment. […] Stocks of strychnine were kept at 1 g in 6 ml of water; embryos were treated with 100 μl of stock in 10 ml of MMR. Drugs and media were replaced every 48 hours.

Xenopus embryos [2] = experiment: Drug exposure of Xenopus embryos, hyper-pigmentation phenotype
Description: Ivermectin is known to open vertebrate GlyCl channels, resulting in chloride flux through the membrane (Schonrock, B., and Bormann, J. (1993) Naunyn Schmiedebergs Arch Pharmacol 348, 628-632; Shan, Q., Haddrill, J. L., and Lynch, J. W. (2001) J Biol Chem 276, 12556-12564.).
Xenopus embryos were collected according to standard protocols (Sive, Grainger et al. 2000) in 0.1× Modified Marc's Ringers (MMR) pH 7.8+0.1% Gentamycin. Xenopus embryos were staged according to Nieuwkoop and Faber 1967.
as §1

[3] = system: human epidermal melanocytes; experiment: Human melanocyte culture in high potassium media, proliferation and dendrite analysis; assay type: cell-based
Description: After finding that Xenopus melanocytes responded to modulations in membrane potential, we examined human epidermal melanocytes to assess the impact of membrane depolarization on cell phenotype. For these studies, ivermectin could not be used to depolarize the membrane because the culture medium used to maintain the cells has a much higher chloride ion concentration then that observed intracellularly in these particular cells. Thus, membrane potential was modulated by raising the extracellular potassium concentration by addition of potassium gluconate to the media.
Following two days of culture in 50 mM potassium gluconate supplemented media, human melanocytes developed a highly […] morphology, with a number of cells showing five or more such projections (compare FIGS. 6a and b). […] To verify that melanocytes grown in high potassium medium were in fact depolarized we made use of membrane voltage imaging using CC2-DMPE and DiBAC4 dyes, which allow visualization of the membrane potential (FIG. 6, d and e).
Human melanocytes were obtained commercially and cultured in DermaLife M Melanocyte culture medium (Lifeline Cell Technology, Walkersville, Md.). Cells were maintained within standard 50 ml culture flasks (BD Bioscience, San Jose, Calif.), and were fed with 10 ml warm media every other day. Upon reaching confluence, melanocytes were passaged using a standard trypsonization protocol, and new colonies were seeded at approximately 5,000 cells per cm^2.
For dendrite analysis, cells were imaged on a Nikon AZ100M stereo microscope and the numbers of dendrites on all cells within the field of vision were counted. Cell culture in high potassium media was repeated three times, and the results averaged for statistical analysis.

human melanocytes = experiment: Imaging membrane voltage using CC2-DMPE and DiBAC4(3); assay type: cell-based; details: high potassium media, CC2-DMPE and DiBAC4 dyes
Description: CC2-DMPE (N-(6-chloro-7-hydroxycoumarin-3-carbonyl)-dimyristoylphosphatidyl ethanolamine), a coumarin phospholipid, and DiBAC4(3) (bis-(1,3-dibutylbarbituric acid) trimethine oxonol) were purchased from Invitrogen. Stock CC2-DMPE solution was prepared according to manufacturer directions; briefly, a 5 mM stock (in DMSO) was prepared, aliquoted, and stored at −20° C. until immediately before use. DiBAC4(3) stock (1.9 mM in DMSO) was prepared and stored at room temperature. CC2-DMPE stock was dissolved 1:1000 directly into DMEM. DiBAC4(3) stock was dissolved 1:2 in DMSO, then spun at rcf 20,800 for 10 minutes to remove undissolved particles of dye. Supernate was then diluted 1:4000 in DMEM. 1 mL of CC2-DMPE is added to cells grown in 35 mm FluoroDish Sterile Culture Dishes. Cells are incubated for 30 minutes, then washed twice with plain DMEM. 1-2 mLs of DiBAC4(3) are then added to the dish. Cells are incubated at least 30 minutes before imaging begins; cells are imaged while in the DiBAC4(3) bath. A round coverslip is dropped into the dish, and any medium outside the well is removed. […]
An Olympus BX-61 equipped with a Hamamatsu ORCA AG CCD camera, and controlled by IPLabs, was used for imaging. […] No calibration was performed; nonetheless, pixel intensity within and among images can be compared for relative quantification. […]

melanocytes = experiment: Melanocyte counts in ivermectin-exposed Xenopus embryos; assay type: in vivo
Description: We examined whether there is a critical period of ivermectin exposure required for hyperpigmentation. […] One set of animals was exposed to 10 μM ivermectin from stages 10-24 (gastrulation through the completion of neurulation), while the second set were exposed from stages 28-46 (tailbud through tadpole). Early exposed embryos were washed 3× in 0.5×MMR post exposure and transferred to a new dish to remove all drug from the environment.
In order to evaluate the number of melanocytes between treatments, early vs. late exposed embryos were anesthetized in tricane, and then photographed. We then counted the number of melanocytes within the eye region (FIG. 2A, B), and compared each treatment to age-matched control siblings. […] In comparison, embryos exposed to ivermectin during gastrulation and neurogenesis, the time when a subset of neural crest cells become fated to differentiate along a melanocyte fate, show a 1.5 fold increase in melanocyte number compared to controls (FIG. 2C).
Melanocytes were counted by cellAnalyst software (AssaySoft, Inc) on digital photographs of anesthetized larvae. Adobe Illustrator (Adobe Systems Inc) was used to define the dorsal region between the eyes used for counting. Tail regions were defined using digital photographs, starting at the most posterior tip of the tail and counting all melanocytes within a 400 pixel square bounding box extending anteriorly.

Xenopus embryos [4] = experiment: Ivermectin exposure in MMR with varying levels of chloride; assay type: in vivo; details: for % hyper-pigmented / Hyper-pigmented (number of embryos) / Normal pigmentation (number of embryos): 10 μM ivermectin from stage 10
Description: We next sought to determine whether the alteration of melanocyte behavior was due to GlyCl-dependent changes in transmembrane potential. The intracellular concentration of chloride in an embryo is approximately 60 mM while the extracellular concentration of Modified Marc's Ringers (MMR), the solution in which the embryos are maintained, is 10 mM. If ivermectin constitutively opens chloride channels, ivermectin treatment would be expected to cause an efflux of Cl^− ions, thus resulting in depolarization of the cell membrane. Conversely, if the concentration of external chloride were raised above intracellular levels, chloride ions would enter cells following treatment with ivermectin, thus maintaining a hyperpolarized membrane potential. To test this hypothesis, we raised the concentration of chloride in the extracellular MMR media to 30 mM, 60 mM, or 90 mM and examined the resulting phenotype following ivermectin exposure.
Embryos were exposed to the chloride activator ivermectin (10 μM) from stage 10 throughout development in MMR containing varying levels of chloride.
as §1

[5] = ivermectin from gastrulation throughout development
[6] = older tadpoles (beyond stage 46) exposed to ivermectin
[7] = 10 μM ivermectin from stage 10 throughout development, second drug concurrently

Compound: [Cl][Cd][Cl] [cadmium chloride]
- effect on ivermectin-induced hyper-pigmentation (Xenopus embryos [1]): did not result in any reduction; also recorded: did not inhibit hyper-pigmentation

Compound: CNCCC(Oc1ccc(C(F)(F)F)cc1)c1ccccc1 (stereo not shown) [fluoxetine]
- effect on ivermectin-induced hyper-pigmentation (Xenopus embryos [1]): blocked ivermectin-induced hyper-pigmentation in all of the treated embryos; also recorded: completely inhibited

Compound: NCC(=O)O [glycine]
- hyper-pigmentation phenotype (Xenopus embryos [2]; 3 mM glycine, exposure throughout development): induced the same hyperpigmented phenotype as ivermectin; also recorded: induces hyper-pigmentation at a similar level to ivermectin exposure

Compound: Cl[C@H]1[C@H](Cl)[C@@H](Cl)[C@@H](Cl)[C@H](Cl)[C@H]1Cl [lindane]
- effect on ivermectin-induced hyper-pigmentation (Xenopus embryos [1]): did not result in any reduction
- effect on ivermectin-induced hyper-pigmentation (Xenopus embryos [1]; listed as lindine): did not inhibit hyper-pigmentation

Compound: O=C([O-])[C@H](O)[C@@H](O)[C@H](O)[C@H](O)CO.[K+] [potassium gluconate]
- effect on growth in potassium dose response screen ([3]; 40 mM potassium gluconate): non-inhibitory to growth
- cell proliferation, standard vs high potassium media ([3]; 50 mM potassium gluconate supplemented media): No measurable differences in cell proliferation
- dendricity / number of projections of melanocytes ([3]; 50 mM potassium gluconate supplemented media, two days of culture): significant effect on the number of projections; also recorded: significant effect of potassium gluconate on dendricity
- membrane potential of treated cells compared to controls (human melanocytes): depolarization

Compound: ivermectin
- melanocyte morphology compared to wild type siblings (Xenopus embryos [2]; [5]): take on a dendritic morphology
- other disruptions of normal development (Xenopus embryos [2]; [5]): not accompanied by any other observable disruptions of normal development
- treated embryos/larvae developing hyper-pigmentation (Xenopus embryos [2]; [5]): 98%
- increase in melanocyte number in eye field relative to controls (melanocytes; 10 μM ivermectin, early exposure stages 10-24): 1.5 fold
- melanocyte number in eye field relative to controls (melanocytes; 10 μM ivermectin, late exposure stages 28-46, at stage 46): do not show a significant increase; also recorded: no detectible difference
- increase in melanocyte counts in the tip of the tail (melanocytes; ivermectin throughout development): 1.5 fold
- generation of more melanocytes (melanocytes; [6]): do not appear to generate more melanocytes
- time to expansion of pigment cells (melanocytes; [6]): ≤ 24 h
- % hyper-pigmented (Xenopus embryos [4]; 10 mM Cl−): 100%
- Hyper-pigmented (number of embryos) (Xenopus embryos [4]; 10 mM Cl−): 25
- Normal pigmentation (number of embryos) (Xenopus embryos [4]; 10 mM Cl−): 0
- % hyper-pigmented (Xenopus embryos [4]; 30 mM Cl−): 95.8%
- Hyper-pigmented (number of embryos) (Xenopus embryos [4]; 30 mM Cl−): 23
- Normal pigmentation (number of embryos) (Xenopus embryos [4]; 30 mM Cl−): 1
- % hyper-pigmented (Xenopus embryos [4]; 60 mM Cl−): 21.7%
- Hyper-pigmented (number of embryos) (Xenopus embryos [4]; 60 mM Cl−): 5
- Normal pigmentation (number of embryos) (Xenopus embryos [4]; 60 mM Cl−): 18
- % hyper-pigmented (Xenopus embryos [4]; 90 mM Cl−): 0%
- Hyper-pigmented (number of embryos) (Xenopus embryos [4]; 90 mM Cl−): 0
- Normal pigmentation (number of embryos) (Xenopus embryos [4]; 90 mM Cl−): 32
- ivermectin hyper-pigmentation phenotype in words (Xenopus embryos [4]; extracellular chloride 10 mM): strong hyper-pigmentation
- ivermectin hyper-pigmentation phenotype in words (Xenopus embryos [4]; extracellular chloride 30 mM): did not inhibit hyper-pigmentation; also recorded: strong hyper-pigmentation
- ivermectin hyper-pigmentation phenotype in words (Xenopus embryos [4]; extracellular chloride 60 mM): suppressed; also recorded: partial inhibition
- ivermectin hyper-pigmentation phenotype in words (Xenopus embryos [4]; extracellular chloride 90 mM): completely inhibited; also recorded: complete inhibition
- incidence of hyper-pigmentation in words (Xenopus embryos [1]; 10 μM ivermectin alone): strong incidence of hyper-pigmentation
- % hyper-pigmented (Xenopus embryos [1]; [7]): 95.3%
- Hyper-pigmented tadpoles (number) (Xenopus embryos [1]; [7]): 61
- WT tadpoles (number) (Xenopus embryos [1]; [7]): 3
